Earlier results in patent US8524769B2, “Process for producing a fraction enriched up to 100% of 3-O-acetyl-11-keto-beta-boswellic acid from an extract containing a mixture of boswellic acids” (Laila Impex, priority 2002, dated 2013).

System: 5-lipoxygenase (5-LO)
Settings: compared among all six boswellic acids; Sailer et al., British J. Pharmacology 117, 615-618, 1996

Sequence of 5-lipoxygenase (5-LO) (P09917 whole entry, species assumed): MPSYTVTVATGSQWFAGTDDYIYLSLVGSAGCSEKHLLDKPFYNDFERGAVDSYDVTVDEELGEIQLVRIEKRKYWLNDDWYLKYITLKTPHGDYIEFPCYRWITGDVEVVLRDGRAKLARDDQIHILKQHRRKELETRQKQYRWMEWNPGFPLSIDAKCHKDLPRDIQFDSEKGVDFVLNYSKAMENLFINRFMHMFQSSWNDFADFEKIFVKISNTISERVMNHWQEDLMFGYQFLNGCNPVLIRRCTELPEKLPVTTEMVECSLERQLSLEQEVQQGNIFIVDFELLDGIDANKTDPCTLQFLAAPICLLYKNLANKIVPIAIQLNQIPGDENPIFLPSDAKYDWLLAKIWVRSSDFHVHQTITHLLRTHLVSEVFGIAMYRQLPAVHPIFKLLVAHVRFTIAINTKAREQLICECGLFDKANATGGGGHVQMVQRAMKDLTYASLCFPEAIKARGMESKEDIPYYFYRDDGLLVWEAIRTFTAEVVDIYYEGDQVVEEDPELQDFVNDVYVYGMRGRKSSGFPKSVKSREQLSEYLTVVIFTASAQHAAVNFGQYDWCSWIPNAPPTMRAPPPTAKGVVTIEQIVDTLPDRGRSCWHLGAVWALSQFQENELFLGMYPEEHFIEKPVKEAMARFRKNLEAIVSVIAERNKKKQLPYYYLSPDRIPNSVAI

3-O-acetyl-11-keto-β-boswellic acid [AKBA]
inhibitory activity on 5-lipoxygenase: most pronounced inhibitory activity
